Laboratory results as given in patent publication US5952301A, “Compositions and methods for enhancing intestinal function” (1149336 Ontario Inc., priority 1996, dated 1999).
Where “and” joins values, the source holds several entries; their conditions need not be identical. Equal values may be shown once.

Key:
[1] = test system: large intestine; test: Co-administration of GLP-2 with IGF-1 or GH: large intestine mass (Example 2); format: in vivo, mice; settings: for Large Intestine Mass: s.c. twice daily (GH once daily) for 10 days, sacrifice day 11, GLP-2 peptides 2.5 μg, IGF-1/LRIGF-1 50 μg, GH 25 μg per dose, CD1 female mice; for % Change Relative to PBS Control (large intestine) / Change in Intestine Mass Relative to Control (large intestine): same regimen; for Change in Intestine Mass Relative to Control (large intestine): relative to PBS control
Excerpt: (§1) Forty-eight, six week old female CD1 mice (approx. 25 grams, obtained from Charles River Laboratories) were acclimatized in the animal facility for 1 week prior to the experiment. They were housed in plastic bottom, wire lid cages, maintained on a 12 hr light/dark cycle, and allowed chow and water, ad libitum throughout the study. Four days before starting the treatment the mice were weighed using a Mettler PJ300 scale and randomly allocated to 1 of 12 treatment groups. For the experiment, subcutaneous injections in the right hind quarter were given twice daily in the morning and evening for 10 days. However, Growth Hormone (GH) was administered only once a day in the morning. On day 10, the mice were fasted from 12 noon on. Body weight was also taken on day 5 and day 11.
(§2) The treatment groups consisted of the following peptides and peptide combinations. The amount of peptide received per dose by each animal is marked in beside each entry.
(§3) The peptides were weighed (Mettler AE166 scale), reconstituted and aliquoted on the day prior to the first injection. The injection volume, 0.5 ml, was constant through out the experiment using a 1/2 cc U-100 Insulin Syringe (Becton Dickinson and Company, N.J.). All peptide aliquots, except Protropin (GH), were kept at -20° C. and removed 60 minutes prior to injection to thaw. GH was kept at 4° C.
(§4) Control mice (group 1) received the same volume (0.5 ml) of phosphate buffered saline (PBS-1x-137 mM NaCl, 2.7 mM KCl, 4.3 mM Na2HPO4, pH 7.3). Peptides [rat GLP-2] (5 μg/ml) and human [Gly 2] GLP-2 (5 μg/ml) were reconstituted in PBS. One microliter of 1 N NaOH was required to dissolve [Gly2]hGLP-2 in 1 ml.
(§5) IGF recombinant peptides (IGF-1, Lot #FJF-103;Long R3IGF-1(LRIGF-1), Lot# HJF-A01 GroPep Pty Ltd., Australia) stock solutions were reconstituted in 10 mM HCl at a concentration of 1 mg/ml. To minimize the absorption of the peptide to the plastic surface, RIA Grade Bovine Serum Albumin (BSA) (BioLabs Lot 7943) was added to the PBS working solution (100 μg/ml BSA final concentration). Protropin (Growth hormone) (Lot C9009A2, Genentech Canada Inc., Burlington, ON) stock solution was reconstituted with Bacteriostatic water supplied in the kit. The working solution (50 μg/ml) was diluted in PBS (without BSA). Combination treatments of GH+rat GLP-2 and GH+[Gly 2]hGLP-2 were administered by mixing 0.25 mls of each peptide, which were taken up into the same syringe to maintain a consistent injection volume of 0.5 ml. All other combination treatments (for example, rGLP-2+IGF etc.) were initially made up as separate solutions, mixed together, and frozen down together as aliquots of a single mixture, to be administered as single 0.5 ml injections.
(§6) Mice were sacrificed on day 11. Weight measurements were taken for the heart, kidneys, stomach, small intestine and large intestine. Small intestine length was also measured. Blood was taken via cardiac puncture and the plasma was frozen for future analysis. Tissues were also removed for histological analysis.

[2] = test system: small intestine; test: Co-administration of GLP-2 with IGF-1 or GH: small intestine mass (Example 2); format: in vivo, mice; settings: for Small Intestine Mass: s.c. twice daily (GH once daily) for 10 days, sacrifice day 11, GLP-2 peptides 2.5 μg, IGF-1/LRIGF-1 50 μg, GH 25 μg per dose, CD1 female mice; for % Change Relative to PBS Control (small intestine) / Change in Intestine Mass Relative to Control (small intestine): same regimen; for Change in Intestine Mass Relative to Control (small intestine): relative to PBS control
Excerpt: as §1, §2, §3, §4, §5, §6

[3] = test system: small intestine; test: Effect of rat GLP-2 on small intestine weight in mice (Example 1); format: in vivo; settings: for Small Intestine Weight % body wt / Small Intestine Weight Ave: group average; for Small Intestine Weight % body wt / Small Intestine Weight Ave / Small Intestine Weight Day 10: 41.5 μg peptide per injection s.c. every 12 hours for 10 days, CD1 females; for Small Intestine Weight Day 10: single mice
Experimental: This experiment was designed to investigate the effect of GLP-2 on small intestine growth. Mice were treated with human GLP-1, rat GLP-2, or no peptide, and the mass of the small intestine analyzed.
For this experiment, rat GLP-2 and human GLP-1 (7-36 amide) were custom synthesized by application of the tBoc-based solid phase approach. […] The pH was then readjusted to about 7.0 by addition of an equal volume of IN NaOH […], and the solution volume was then adjusted to 10 mL by addition of distilled water. To prepare the formulation for injection, the 10 mL peptide solution and the 50 mL solution of 16% gelatin were combined with mixing, and aliquots for injection were drawn into a 0.5 mL insulin syringe. The same procedure was used to formulate the GLP-1, with the exception that no acid/base adjustment was necessary given its relative greater solubility in water.
Three groups of six mice (8 week old, CD1 females from Charles River Laboratories) were treated as follows. Each mouse received injections for 10 days. The injections were delivered subcutaneously in a final volume of 16% gelatin, with 0.5 cc injected subcutaneously every 12 hours. Mice treated with GLP-1 or GLP-2 peptide received 41.5 μg of the respective peptide in each injection. Control mice received 0.5 cc of 16% gelatin solution, but no peptide. Mice were fed standard rat chow with free access to food and water, until 12 hours prior to sacrifice, at which time food was withheld, and water only was given. The weight of the small intestine was ascertained by excising the entire intestine, and removing the stomach (proximal end) and appendix/cecum/large intestine (distal end). The remaining small intestine was cleaned with saline to remove feces, and weighed.

Substance	Large Intestine Mass [1]	% Change Relative to PBS Control (large intestine) [1]	Change in Intestine Mass Relative to Control (large intestine) [1]	Small Intestine Mass [2]	increase in the mass of small intestine relative to control group and GLP-1 group ([3]; about 2 mg/kg (about 500 nmole/kg) twice daily for 10 days)	Small Intestine Weight % body wt [3]	Small Intestine Weight Ave [3]	Small Intestine Weight Day 10 [3]	% Change Relative to PBS Control (small intestine) [2]	Change in Intestine Mass Relative to Control (small intestine) [2]
IGF-1: Insulin-Like Growth Factor-1, recombinant peptide, GroPep Pty Ltd.	0.262 g	-7%	0.021 g	1.158 g and 1.517 g						
rat GLP-2: rat Glucagon-like peptide-2, 33 amino acid peptide, custom synthesized by tBoc-based solid phase approach (HADGSFSDEMNTILDNLATRDFINWLIQTKITD; Glucagon-like peptide 2; UniProt P06883 146-178, looked up)	0.245 g	-13.10%	-0.038 g	1.066 g	statistically significant (p-- 0.05) increase	8.12 ± .40 % body wt	2.08 ± .14 gm	1.8 gm and 2.3 gm and 2.4 gm	+3%	0.031 g
[Gly 2] hGLP-2: Human GLP-2 having Gly substituted for Ala at position 2 (HGDGSFSDEMNTILDNLAARDFINWLIQTKITD; Glucagon-like peptide 2; UniProt P01275 146-178, looked up, variant A2G)	0.308 g	+9%	0.025 g	1.810 g					+75%	0.775 g
human GLP-1 (7-36 amide) [reference compound]						5.26 ± .25 % body wt	1.33 ± .04 gm	1.4 gm and 1.3 gm and 1.2 gm		
hGH: Protropin (Growth hormone), Genentech Canada Inc. [reference compound]	0.260 g	-8%	0.023 g	1.230 g					+19%	0.195 g
